Test results reported in patent EP1207886B1, “SPHINGOMYELINASE INHIBITORS AS AGENTS WITH ANTIAPOPTOTIC AND ANTISEPTIC ACTION” (Biofrontera Pharmaceuticals GmbH, priority 1999, dated 2000).

How the values were obtained:
Assay type in all cases: cell-based, Menschliche
Mφ [1] = assay: Cell culture and apoptosis test (counting YOPRO-1-stained apoptotic cells); conditions: differentiated Mφ pretreated 30 min with compound, then mmLDL or TNF α (3 ng/ml); YOPRO-1 count after four hours; read-out: Apoptose (IC-50)
From the text: LDL wurde von gesunden, freiwilligen Testpersonen durch sequentielle Flotation in einer Ultrazentrifuge bei vorbestimmten Dichten erhalten, wie in Havel et al. (J. Clin. Invest. 34, 3145 (1955)) bzw. Deigner et al. (Arzneim.-Forsch./Drug Res. 44, 956, (1994)) beschrieben. Für den Apoptose-Test wurde LDL durch Dialyse gegen Tris-HCl-Puffer, der 20 µMol FeCl3 enthielt, für 48 Stunden minimal modifiziert (mmLDL), wie von Watson et al. (J. Clin. Invest. 95, 774 (1995) beschrieben.
Menschliche, mononucleäre, periphere Blutzellen aus venösem Blut wurden isoliert, gezüchtet und, wie in Kinscherf et al. (The FASEB J. 11, 1317 (1997); The FASEB J. 12, 461 (1998)) beschrieben, bis zum Differenzieren zu Mφ belassen. Differenzierte Mφ wurden mit Lipoproteinmangelserum (P>1,21, durch Ultrazentrifugieren von fötalem Kälberserum hergestellt, wie in Havel et al. beschrieben) für 24 Stunden vor der Testdurchführung gezüchtet, mit der entsprechenden Verbindung für 30 Minuten bei den angeführten Konzentrationen vorbehandelt und anschließlich mLDL oder rekombinantem TNF α (3 ng/ml) in dem gleichen Medium ausgesetzt. Die Bestimmung der Apoptose wurde durch Zählen von YOPRO-1-gefärbten apoptotischen Zellen, wie in Idziorek et al. (J. Immunol. Methods 185, 249 (1995)) beschrieben, nach vier Stunden durchgeführt.

Mφ [2] = assay: Apoptosis in Mφ induced by C6-ceramide or mmLDL (YOPRO-1 staining / TUNEL); conditions: for programmierten Zelltod in Mφ: mmLDL or ceramide
Experimental: (§1) Fig. 6 zeigt die Wirkung einer Vorbehandlung von Mφ mit einer Zusammensetzung die [3-(Carbazol-9-yl)-N-propyl]-[2-(4-methoxyphenyl)-ethyl]-methylamin (V6) enthält (2 µM, 30 min), auf die aSMase-Expression und die Apoptose in Mφ (Prozentanteil von apoptotischen Mφ, bestimmt durch YOPRO-1-Färbung nach Inkubation mit Medium oder C6-Ceramid (10 µM) mit oder ohne Vorbehandlung mit der Verbindung V6; Daten sind als Mittelwert ± SEM von drei Experimenten angegeben. *, P ≤ 0,05 vs. Kontrolle oder #, P ≤ 0,05 vs. mit C6-Ceramid behandelten Zellen (120 min)).
(§2) Menschliche, mononucleäre, periphere Blutzellen aus venösem Blut wurden mittels Ficoll-Paque (Sigma, Deisenhofen, BR Deutschland) Dichtegradientenzentrifugierung isoliert. Mφ wurden mmLDL (27 µg/ml), C6-Ceramid (10 µM) bzw. H2O2 (30 µM) unterworfen. Apoptotische Zellen wurden mittels YOPRO-1-Färbung (s. Idziorek et al, J. Immunol. Methods, 185, 1995, 249-258) und/oder mittels TUNEL-Technik (Quantum Appligene, Heidelberg, BR Deutschland) identifiziert. Die Bestimmung der Apoptose (Prozentanteil apoptotischer Zellen) wurde durch Zählen von YOPRO-1-gefärbten apoptotischen Zellen unter Verwendung eines Mikroskops, ausgestattet mit einer Quecksilberlampe und einer Fluoreszenzeinheit in Kombination mit einem Computer-unterstützten Morphometriesystem, quantifiziert.

Ceramid = assay: Ceramide concentration in cells (diacylglycerol-kinase phosphorylation); conditions: Mφ, mmLDL or ceramide
From the text: Die Ceramidkonzentrationen in den Zellen wurden nach Diacylglycerolkatalysierter Phosphorylierung, wie in Kinscherf et al. (FEBS, 405, 55 (1997)) und Dressler et al. (J. Biol. Chem. 265, 14917 (1990)) beschrieben, bestimmt.
Figur 1 zeigt in einem Diagramm die Phospho-Ceramid-Konzentration (cpm/spot) nach ox. LDL-Stimulierung zum einen ohne (ox) und zum anderen unter Zugabe entsprechender Verbindungen mit der allgemeinen Formel (I), die in den erfindungsgemäßen pharmazeutischen Zusammensetzungen enthalten sein können, nämlich [2-(3,4-Dimethoxyphenyl)-ethyl]-[3-(2-chlorphenothiazin-10-yl)-N-propyl]-methylamin (V3) und [3-(Carbazol-9-yl)-N-propyl]-[2-(4-methoxyphenyl)-ethyl]methylamin (V6). Ferner ist auch die Phospho-Ceramid-Konzentration in Folge der Stimulation durch TNF angegeben.

sauren Sphingomyelinase = molecular target: T1, sauren Sphingomyelinase (Homo sapiens, UniProt P17405); assay: SMase inhibition in cells (activity in cell lysates, BODIPY-FL-C5-sphingomyelin, HPLC); conditions: for IC50: human macrophages pretreated 30 min with compound, then 2 h oxidised LDL (27 µg/ml), lysate activity at pH 5,0, read-out: Hemmung der sauren Sphingomyelinase (Zellen) (IC-50)
T1 construct: endogenous in cells; host or cells: human macrophages (treated with compound, then oxidised LDL; lysed, supernatant assayed)
T1 sequence (P17405 47-631): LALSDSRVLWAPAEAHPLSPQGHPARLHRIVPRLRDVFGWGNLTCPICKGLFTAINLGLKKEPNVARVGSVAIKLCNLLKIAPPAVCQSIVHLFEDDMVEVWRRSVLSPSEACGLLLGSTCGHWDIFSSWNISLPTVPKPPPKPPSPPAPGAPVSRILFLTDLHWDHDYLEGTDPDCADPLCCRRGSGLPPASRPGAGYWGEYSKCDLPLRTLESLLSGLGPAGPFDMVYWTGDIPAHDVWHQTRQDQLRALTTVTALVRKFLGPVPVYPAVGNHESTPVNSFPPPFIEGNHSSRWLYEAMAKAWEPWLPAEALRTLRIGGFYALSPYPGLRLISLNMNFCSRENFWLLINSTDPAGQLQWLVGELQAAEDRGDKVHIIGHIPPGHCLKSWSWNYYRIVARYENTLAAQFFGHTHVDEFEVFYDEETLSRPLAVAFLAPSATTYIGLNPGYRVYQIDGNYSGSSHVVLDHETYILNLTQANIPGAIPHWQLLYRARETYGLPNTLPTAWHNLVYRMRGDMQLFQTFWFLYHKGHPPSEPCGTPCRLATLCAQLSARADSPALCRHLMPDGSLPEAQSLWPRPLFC

aSMase = assay: RT-PCR of aSMase expression in Mφ; conditions: for mmLDL- oder Ceramid-induzierte Enzyminduktion: Mφ
Experimental: Fig. 5 zeigt die RT-PCR von aSMase in Mφ. Es zeigt sich eine Expression von aSMase (687 bp) nach Inkubation (4 h) von Mφ mit steigenden mmLDL-Konzentrationen.
as §1, §2
Für die Amplifizierung der aSMase waren die Primer und die Bedingungen wie folgt: 5'-[…]-3' (vorwärts) und 5'-[…]-3', 94°C, 60°C, 72°C, jeweils 1 min, 40 Zyklen (Sequenzanalyse des gereinigten PCR-Produkts durch das Deutsche Krebsforschungszentrum, Heidelberg, BR Deutschland, bestätigte die Amplifizierung des erwarteten aSMase-Fragments).

IC50 (Mφ [1]) [µM]	IC50 (sauren Sphingomyelinase) [µM]	Compound	also measured
–	16	COc1ccc(CCN(C)CCN2c3ccccc3CCc3ccccc32)cc1 [V16, [2-(10,11-Dihydro-dibenzo[b,f]azepin-5-yl)-N-ethyl]-[2-(4-methoxyphenyl)-ethyl]methylamin]	–
–	10	COc1ccc(CCNCCCNC2c3ccccc3CCc3ccccc32)cc1 [V22, N-(5H-Dibenzo[a,d]cycloheptan-5-yl)-N'-[2-(4-methoxyphenyl)-ethyl]-propylendiamin]	–
–	8	COc1ccc(CCN(C)CCn2c3ccccc3c3ccccc32)cc1 [V23, [2-(Carbazol-9-yl)-N-ethyl]-[2-(4-methoxyphenyl)-ethyl]methylamin]	–
1.5	20	COc1ccc(CCN(C)CCC=C2c3ccccc3CCc3ccccc32)cc1 [V31, [3-(10,11-Dihydro-dibenzo[a,d]cyclohepten-5-yliden)-propyl]-[2-(4-methoxyphenyl)-ethyl]methylamin]	–
18	–	COc1ccc(CCN(C)C(F)(F)C(F)(F)C(F)(F)C(F)(F)n2c3ccccc3c3ccccc32)cc1 [V32, (4-Carbazol-9-yl-1,1,2,2,3,3,4,4-octafluorbutyl)-[2-(4-methoxyphenyl)-ethyl]-methylamin]	–
6	–	COc1ccc(CCN(C)CCCN(c2ccccc2)c2ccccc2)cc1OC [V35, N-[2-(3,4-Dimethoxyphenyl)-ethyl]-N-methyl-N',N'-diphenylpropan-1,3-diamin]	–
1	–	COc1ccc(CCN2C(C)CN(CCCN3c4ccccc4Oc4ccccc43)CC2C)cc1 (stereo not drawn) [V36, 10-(3-{4-[2-(4-Methoxyphenyl)-ethyl]-3,5-dimethylpiperazin-1-yl}-propyl)-10H-phenoxazin]	–
2.5	–	COc1ccc(CCN(C)CCCN2c3ccccc3Oc3ccccc32)cc1OC [V37, [2-(3,4-Dimethoxyphenyl)-ethyl]-methyl-(phenoxazin-10-yl-propyl)amin]	–
6	–	COc1ccc(CCN(C)CCC=C2c3ccccc3CCc3ccccc32)cc1OC [V38, [3-(10,11-Dihydro-dibenzo[a,d]cyclohepten-5-yliden)-propyl]-[2-(3,4-dimethoxyphenyl)-ethyl]methylamin]	–
7	–	COc1ccc(CCN2CCCN(C3c4ccccc4CCc4ccccc43)C2)cc1OC [V41, N-(10,11-Dihydro-5H-dibenzo[a,d]cyclohepten-5-yl)-N'-[2-(3,4-dimethoxyphenyl)-ethyl]-hexahydropyrimidin]	–

The remaining lines, values behind:

Compound	IC50 (Mφ [1]) [µM]	IC50 (sauren Sphingomyelinase) [µM]	also measured
10-(3-{4-[2-(3,-Dimethoxyphenyl)-ethyl]-3,5-dimethylpiperazin-1-yl}-propyl)-9H-carbazol [V42]	4	–	–
COc1ccc(Cn2c(=O)c3ccccc3n(Cc3ccc(OC)cc3)c2=O)cc1 [1,3-Bis-(4-methoxybenzyl)-1H-chinazolin-2,4-dion]	0.5	–	–
COc1ccc(Cn2c(=O)[nH]c3ccccc3c2=O)cc1 [3-(4-Methoxybenzyl)-1H-chinazolin-2,4-dion]	3	–	–
COc1ccc(Cn2c3ccccc3c3ccccc32)cc1 [9-(4-Methoxybenzyl-9H-carbazol)]	1	–	–
COc1ccc(CCN(C)CCCN2c3ccccc3Sc3ccc(Cl)cc32)cc1OC [V3, [2-(3,4-Dimethoxyphenyl)-ethyl]-[3-(2-chlorphenothiazin-10-yl)-N-propyl]-methylamin]	2	6	programmierten Zelltod in Mφ (Mφ [2]): vermindert; Stimulierung der Ceramidbildung (Ceramid): inhibieren; mmLDL- oder Ceramid-induzierte Enzyminduktion (aSMase): inhibieren
COc1ccc(CCN(C)CCCN2c3ccccc3Sc3ccc(Cl)cc32)cc1 [V4, [2-(4-Methoxyphenyl)-ethyl]-[3-(2-chlorphenothiazin-10-yl)-N-propyl]-methylamin]	5	–	–
COc1ccc(CCN(C)CCCn2c3ccccc3c3ccccc32)cc1OC [V5, [3-(Carbazol-9-yl)-N-propyl]-[2-(3,4-dimethoxyphenyl)-ethyl]methylamin]	–	8	–
COc1ccc(CCN(C)CCCn2c3ccccc3c3ccccc32)cc1 [V6, [3-(Carbazol-9-yl)-N-propyl]-[2-(4-methoxyphenyl)-ethyl]methylamin]	–	9	programmierten Zelltod in Mφ (Mφ [2]): vermindert; Induktion von Apoptose (Mφ [2]; pretreatment of Mφ (2 µM, 30 min), C6-Ceramid (10 µM), YOPRO-1): verhinderte; Stimulierung der Ceramidbildung (Ceramid): inhibieren; Aktivierung des Enzyms (sauren Sphingomyelinase; ceramide-treated Mφ, measured in cell lysates): verhinderte; durch mmLDL (27 µg/ml) initiierten Anstieg der aSMase-Aktivität in Zelllysaten (sauren Sphingomyelinase; pretreatment of Mφ, mmLDL 27 µg/ml, basal activity 2,18 nmol/h x mg): vollständig verhindert; mmLDL- oder Ceramid-induzierte Enzyminduktion (aSMase): inhibieren; Ceramid-vermittelte aSMase-Transkription (aSMase; pretreatment of Mφ (2 µM, 30 min), C6-Ceramid (10 µM)): verhinderte
COc1ccc(CCN(C)CCN2c3ccccc3CCc3ccccc32)cc1OC [V15, [2-(10,11-Dihydro-dibenzo[b,f]azepin-5-yl)-N-ethyl]-[2-(3,4-dimethoxyphenyl)-ethyl]methylamin]	–	14	–
COc1ccc(CCN2CCN(CCn3c4ccccc4c4ccccc43)CC2)cc1 [V18, N-[2-(Carbazol-9-yl)-N-ethyl]-N'-[2-(4-methoxyphenyl)-ethyl]piperazin]	–	33	–
COc1ccc(CCN(C)CCCN(c2ccccc2)c2ccccc2)cc1 [V34, N-[2-(4-Methoxyphenyl)-ethyl]-N-methyl-N',N'-diphenylpropan-1,3-diamin]	3	–	–
